Results taken from US6372894B1, “Cycolalkylated B-glucoside” (Nihon Shokuhin Kako Co., Ltd., priority 1999, dated 2002).

Assays:
[1] = target: β-glucosidase derived from Aspergillus niger (Aspergillus niger, UniProt A2RAL4); experiment: β-Glucosidase inhibition test (pNP-β-Glc), A. niger enzyme; assay type: biochemical
Method: (§1) β-Glucosidase inhibition test was performed as follows. 10 mM p-nitrophenyl-p-glucoside (100 μl, abbreviated as pNP-β-Glc hereinafter), 1 M sodium acetate buffer (pH 5.0, 50 μl), pure-water, and 100 mM inhibitor (10 μl) were taken into a short test tube so that the mixture should have a total volume of 800 μl, and preincubated at 40° C. for 5 minutes. After the incubation, the obtained mixture was added with 50 μl of enzyme solution diluted to a suitable concentration, and allowed to react at 40° C. After 10 minutes, the enzyme was inactivated by adding 500 μl of 1 M sodium carbonate to the obtained reaction mixture, and the absorbance at 405 nm was measured and used for calculation of the amount of free p-nitrophenol. As the inhibitor, cyclopropylmethyl-β-glucoside (CPAM-β-Glc), cyclopentyl-β-glucoside (CPE-β-Glc), and cyclopentylmethyl-β-glucoside (CPEM-β-Glc) all prepared by the methods of Examples 1 and 2 were used. As the β-glucosidase, chromatographically purified preparations derived from Aspergillus niger, Trichoderma viride, and Almond (all from SIGMA) were used.

[2] = target: β-glucosidase derived from Trichoderma viride (Trichoderma viride, UniProt Q6UJY0); experiment: β-Glucosidase inhibition test (pNP-β-Glc), T. viride enzyme; assay type: biochemical
Method: as §1

[3] = tested on: β-glucosidase derived from Almond; experiment: β-Glucosidase inhibition test (pNP-β-Glc), almond enzyme; assay type: biochemical; details: inhibitor concentration of 1.25 mM
Method: as §1

[4] = tested on: pNP-β-Glc activity of rose petal crude enzyme solution; experiment: Inhibition test for rose crude enzyme; assay type: biochemical, Rosa gybrida CV. Wendy
Method: as §1
Only petals (about 70 g) were collected from about ten marketed roses (variety; Rosa gybrida CV. Wendy), added with acetone (500 ml) cooled to −20° C., and pulverized by a homogenizer while cooled with dry ice. The obtained pulverized mixture was filtered through a Buchner funnel put with a No. 2 filter paper sheet, and sufficiently washed with acetone at −20° C. The obtained filtrate was dried in a desiccator under reduced pressure (room temperature, 3 hours) to obtain 6 g of crude enzyme powder. This powder was added to 100 mM sodium phosphate buffer (pH 7.0, 120 ml) and stirred at 4° C. for 3 hours, and the insoluble matter was removed by centrifugation. The filtrate was subjected to ultrafiltration utilizing an ultrafiltration membrane PM-10 (Amicon) to finally afford 15 ml of crude enzyme solution.
In the same manner as in Example 3, the inhibition activity of the CPEM-β-Glc obtained in Example 2 for the pNP-β-Glc activity of the above crude enzyme solution was measured. […]

lily cut flower = experiment: Aromatic substance formation inhibition effect in cut flowers, organoleptic test (lily); assay type: in vivo; details: 0.13% (w/v, 5 mM) aqueous solution, after one day, all of ten expert panelists, versus water
Method: (§2) A 0.13% (w/v, 5 mM) aqueous solution of the CPEM-β-Glc obtained in Example 2 was prepared. The obtained aqueous solution (300 ml) was introduced into an Erlenmeyer flask, and lily, chrysanthemum, and gypsophila were put into it one for each. On the other hand, as control, the flowers were similarly put into water without the CPEM-β-Glc. After 1, 2 and 4 days, organoleptic test was performed by ten expert panelists as for the aroma emitted from these cut flowers.

chrysanthemum cut flower = experiment: Aromatic substance formation inhibition effect in cut flowers, organoleptic test (chrysanthemum); assay type: in vivo; details: 0.13% (w/v, 5 mM) aqueous solution, after one day, all of ten expert panelists, versus water
Method: as §2

gypsophila cut flower = experiment: Aromatic substance formation inhibition effect in cut flowers, organoleptic test (gypsophila); assay type: in vivo; details: 0.13% (w/v, 5 mM) aqueous solution, after one day, all of ten expert panelists, versus water
Method: as §2

[5] = tested on: lily, chrysanthemum, and gypsophila cut flowers; experiment: Freshness of cut flowers in the aroma test; assay type: in vivo; details: 0.13% (w/v, 5 mM) aqueous solution
Method: as §2

OCC1OC(OCC2CCCC2)C(O)C(O)C1O (stereo not drawn) [CPEM-β-Glc, cyclopentylmethyl-β-glucoside]
inhibition of β-glucosidase, in words ([1]; A. niger enzyme, inhibitor concentration of 1.25 mM): relatively weak inhibition | IC50 ([1]; A. niger β-glucosidase, concentration varied from 0 to 5 mM, read-out: 50% inhibition concentration): 12.6 mM | inhibition of β-glucosidase, in words ([2]; T. viride enzyme, inhibitor concentration of 1.25 mM): no inhibition | IC50 ([2]; T. viride β-glucosidase, concentration varied from 0 to 5 mM, read-out: 50% inhibition concentration): 11.5 mM | inhibition of β-glucosidase, in words [3]: strongly inhibited | inhibition activity ([4]; at 3 mM): about 50% | inhibition activity ([4]; at 4 mM): about 70% | inhibition activity ([4]; at 5 mM): about 90% | aroma emitted from cut flowers, organoleptic test (lily cut flower): distinctly reduced | aroma emitted from cut flowers, organoleptic test (chrysanthemum cut flower): distinctly reduced | aroma emitted from cut flowers, organoleptic test (gypsophila cut flower): distinctly reduced | freshness of the cut flowers, added versus not added [5]: No difference in freshness
